Assay results taken from patent US20250059196A1 (SHANGHAI HANSOH BIOMEDICAL CO., LTD., priority 2021, published 2025).
Where two headings read alike, the source gives them in different places.

How the values were obtained:
[1] = target: Recombinant human MALT1/MLT protein (Homo sapiens (Human), UniProt Q9UDY8); test: Inhibitory effect on MALT1 enzyme activity (Ac-LRSR-AMC substrate, fluorescence 460 nm); assay type: biochemical; conditions: 10 nM FL MALT1, Ac-LRSR-AMC substrate, 50 min pre-incubation, 4 h reaction
Recombinant human MALT1/MLT protein, sequence (Q9UDY8 whole entry): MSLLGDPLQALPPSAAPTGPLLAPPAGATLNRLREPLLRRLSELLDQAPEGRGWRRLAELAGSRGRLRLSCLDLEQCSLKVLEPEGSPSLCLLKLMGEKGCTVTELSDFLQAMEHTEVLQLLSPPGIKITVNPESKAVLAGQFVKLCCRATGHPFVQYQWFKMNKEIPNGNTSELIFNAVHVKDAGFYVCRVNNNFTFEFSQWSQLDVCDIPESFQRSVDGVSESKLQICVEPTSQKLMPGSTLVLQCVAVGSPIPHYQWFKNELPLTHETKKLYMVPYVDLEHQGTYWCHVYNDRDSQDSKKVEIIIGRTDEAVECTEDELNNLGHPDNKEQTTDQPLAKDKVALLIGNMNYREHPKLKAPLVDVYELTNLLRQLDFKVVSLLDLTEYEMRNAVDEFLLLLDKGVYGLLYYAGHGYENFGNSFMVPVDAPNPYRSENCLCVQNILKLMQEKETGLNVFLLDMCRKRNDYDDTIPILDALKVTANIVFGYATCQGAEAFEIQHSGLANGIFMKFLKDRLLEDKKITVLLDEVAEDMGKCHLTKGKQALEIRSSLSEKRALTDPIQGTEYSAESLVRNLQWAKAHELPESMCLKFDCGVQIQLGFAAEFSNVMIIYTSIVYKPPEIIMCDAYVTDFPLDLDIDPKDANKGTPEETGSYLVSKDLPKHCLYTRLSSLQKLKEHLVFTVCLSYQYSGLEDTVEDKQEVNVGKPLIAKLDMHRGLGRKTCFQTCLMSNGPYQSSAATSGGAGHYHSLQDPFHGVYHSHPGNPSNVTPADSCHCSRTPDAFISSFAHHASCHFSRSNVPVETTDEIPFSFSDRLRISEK
Description: Ac-LRSR-AMC was used as the substrate to test the IC50 of the inhibitory activity of compounds on MALT1 enzyme activity at their Km concentration.
Ac-LRSR-AMC was used as the substrate which was digested by MALT1 to produce products, which produced fluorescence that could be detected at 460 nm. The highest concentration of the compound detected was 1000 nM, 3-fold dilution, a total of 11 concentrations (1000 nM-0.017 nM). The reaction system is 10 nM FL MALT1 protein, […] Ac-LRSR-AMC, 50 mM Tris pH 7.5, 0.6M Citrate, 1 mM DTT, 1 mM EDTA, 0.05% BSA and 1.5% DMSO. The compound and the enzyme were pre-incubated at room temperature for 50 min. The substrate was then added and the reaction was carried out for 4 h.
The original data (460 nm reading) was calculated according to the following formula to obtain the inhibition rate.
(§1) Log(inhibitor) vs. response—Variable slope (four parameters) in GraphPad Prism 6 was used to perform fitting equation analysis on compound concentration and corresponding inhibition rate, the curve was fit and compound IC50 value was obtained.
(§2) The fitting calculation equation is Y=Bottom+(Top−Bottom)/(1+10^((Log IC50−X)*HillSlope))

[2] = system: OCI-Ly3 cells; test: Inhibition of proliferation of OCI-Ly3 cells (CellTiter-Glo); assay type: cell-based, human; conditions: 96 h incubation, read-out: Inhibition test of proliferation of OCI-Ly3 cells IC50
Description: The compound's inhibitory effect on the proliferation of TMD8 and OCI-Ly3 cells was evaluated through cell proliferation inhibition experiments.
The compound's inhibitory effect on the proliferation of TMD8 and OCI-Ly3 cells was detected by the CellTiter-Glo method. The highest concentration of the compound detected was 1000 nM, 3-fold dilution, a total of 9 concentrations (1000 nM-0.15 nM). After the cells were plated at an appropriate density, compounds were added the next day and incubated for 96 h before detection using the CellTiter-Glo Luminescent detection kit.
as §1, §2

[3] = target: MALT1 protease activity in TMD8 cells (substrate BCL-10) (Homo sapiens (Human), UniProt Q9UDY8); test: Intracellular MALT1 protease activity detection (BCL-10 ELISA in TMD8 cells); assay type: cell-based; conditions: undigested BCL-10 by ELISA, 30 min compound then 2 h stimulation cocktail, read-out: Bcl10 TMD8 IC50
MALT1 protease activity in TMD8 cells (substrate BCL-10), sequence (Q9UDY8 whole entry): as above
Description: By detecting the digestion level of the substrate BCL-10 by MALT1 in TMD8 cells, the inhibitory effect of the compound on MALT1 protease activity in the cellular environment was tested.
The ELISA sandwich method was used to detect the content of undigested BCL-10 protein in cells and determine the inhibitory effect of compounds on intracellular MALT1 protease activity. The highest concentration of the compound detected was 10000 nM, 3-fold dilution, a total of 9 concentrations (10000 nM-1.5 nM). Cells were plated at an appropriate density. Compounds of corresponding concentrations were first added for action for 30 min, and then eBioscience cell stimulation cocktail was added to stimulate the cells for 2 h. Cell lysate was then collected. The cell lysate was added to the assay plate previously coated with recombinant BCL-10 antibody (Abcam, #Ab33905) and incubated at 4° C. overnight. The next day, BCL-10 detection antibody (Santacruz, #Sc-5273HRP) was added and incubated for 2 h, TMB substrate was used for color development for about 30 min, then the color development was terminated, and a microplate reader was used for detection.
2) Curve fitting: Log(inhibitor) vs. response—Variable slope (four parameters) in GraphPad Prism 6 was used to perform fitting equation analysis on compound concentration and corresponding inhibition rate, the curve was fit and compound IC50 value was obtained.
as §2

[4] = Pharmacokinetics of oral administration in Balb/C mice; assay type: in vivo; design: Cmax: unit: ng/mL; conditions: 30 mg/kg, P.O., plasma
Description: Balb/C mice were used as test animals to study the pharmacokinetic behavior of the compound in the plasma of mice after oral administration at a dose of 30 mg/kg.
3 Balb/C mice (3/example), male, from Shanghai Jiesijie Experimental Animal Co., Ltd., animal production license number (SCXK (Shanghai) 2013-0006 N0.311620400001794).
3 Balb/C mice, male; p.o. respectively at a dose of 30 mg/kg and an administration volume of 10 mL/kg after the mice were fasted overnight.
Before and after administration of mice, 0.1 mL of blood was collected from the orbit at 0, 0.5, 1, 2, 4, 6, 8 and 24 h, and placed in EDTA-K2 test tubes, which was centrifuged at 6000 rpm at 4° C. for 6 min to separate plasma which was stored at −80° C.
• 1) 160 μL of acetonitrile was added to 40 μL of plasma sample for precipitation, and same was mixed and centrifuged at 3500×g for 5 to 20 min. • 2) 100 μL of the treated supernatant solution was taken and subjected to LC/MS/MS to analyze the concentrations of the test compounds.
• Liquid phase conditions: Shimadzu LC-20AD pump • Mass spectrometry conditions: AB Sciex API 4000 mass spectrometer • Chromatographic column: Phenomenex Gemiu 5 um C18 50×4.6 mm • Mobile phase: liquid A is 0.1% aqueous formic acid solution, liquid B is acetonitrile • flow rate: 0.8 mL/min • Elution time: 0-4.0 min, the eluent is as follows:
The main pharmacokinetic parameters were calculated using WinNonlin 8.2.

[5] = Caco-2 bidirectional permeability test; conditions: human, Caco-2
Description: The purpose of this experiment is to test the bidirectional permeability of the compound through the Caco-2 cell model and evaluate whether the compound is transported by efflux transporters.
Liquid chromatography-mass spectrometer, centrifuge, vortexer, pipette, 96-well test plate (HTS Transwell Plate), acetonitrile solution containing internal standard, Caco-2 cells (ATCC), Hank's balance solution (HBSS), fluorescent yellow (LY), dimethyl sulfoxide (DMSO).
108 μL of transport buffer (HBSS containing 10 μM of the example compound) was added to the administration end of A to B. • b. 300 μL of transport buffer (HBSS containing DMSO) was added to the receiving end of A to B. • c. 300 μL of transport buffer (HBSS containing 10 μM example compound) was added to the administration end of A to B. • d. 108 μL of transport buffer (HBSS containing DMSO) was added to the receiving end of A to B. • e. incubation was performed for 90 min. • d. a sample was taken, processed and detected with mass spectrometry.
• Instruments: Liquid Chromatography; • Chromatographic column: Waters XSelect HSS T3 2.5 μm (2.1×50 mm); • Mobile phase: Phase A: 0.1% formic acid in pure water; Phase B: 0.1% formic acid in acetonitrile.
• Instruments: AP16500+liquid chromatography-mass spectrometer; • The ion source is electrospray ionization source (ESI); • The detection method is positive ion detection;
The scanning method is selected reaction monitoring (MRM).

[6] = male, mouse, po, read-out: AUC 0-t
[7] = male, mouse, po, read-out: Cmax
[8] = male, mouse, po, read-out: Tmax

SMILES	IC50 [1]	IC50 [3]	IC50 ([2]; Homo sapiens)	AUC(0-t) [4, 6]	Cmax [4, 7]	Tmax [4, 8]	AUC(0-inf) ([4]; male, mouse, po)	half-life ([4]; male, mouse, po)	MRT ([4]; male, mouse, po, read-out: MRT)	other results
Cc1ncn(-c2ncc(NC(=O)c3cnn(-c4ccc5c6c(cccc46)C(=O)N5)c3C(F)(F)F)cc2Cl)n1 [Example 46]	93 nM	80 nM	–	–	–	–	–	–	–	IC50 [2]: 222 nM
O=C(Nc1ccc(-n2nccn2)c(C(F)(F)F)c1)c1cnn(-c2ccc3c4c(cccc24)C(=O)N3)c1C(F)(F)F [Example 50, N-(4-(2H-1,2,3-triazol-2-yl)-3-(trifluoromethyl)phenyl)-1-(2-oxo-1,2-dihydrobenzo[cd]indol-6-yl)-5-(trifluoromethyl)-1H-pyrazole-4-carboxamide]	39 nM	–	219 nM	54400 ng·h/mL	3020 ng/mL	8 h	–	–	–	–
O=C(Nc1ccc(-n2nccn2)c(Cl)c1)c1cnn(-c2ccc3c4c(cccc24)C(=O)N3)c1C1CC1 [Example 63, N-(3-chloro-4-(2H-1,2,3-triazol-2-yl)phenyl)-5-cyclopropyl-1-(2-oxo-1,2-dihydrobenzo[cd]indol-6-yl)-1H-pyrazole-4-carboxamide]	28 nM	58 nM	154 nM	–	–	–	–	–	–	–
O=C(Nc1ccc(-n2nccn2)c(Cl)c1)c1cnn(-c2cnc3c4c(cccc24)C(=O)N3)c1C(F)(F)F [Example 75, N-(3-chloro-4-(2H-1,2,3-triazol-2-yl)phenyl)-1-(2-carbonyl-1,2-dihydropyrrolo[4,3,2-ij]isoquinolin-6-yl)-5-(trifluoromethyl)-1H-pyrazole-4-carboxamide]	–	83 nM	213 nM	12200 ng·h/mL	1290 ng/mL	2 h	12200 ng·h/mL	3 h	5.5 h	–
O=C(Nc1cnc(-n2cccn2)c(Cl)c1)c1cnn(-c2ccc3c4c(cccc24)C(=O)N3)c1C(F)(F)F [Example 44]	80 nM	–	–	–	–	–	–	–	–	IC50 [2]: 149 nM
O=C(Nc1cnc(-n2nccn2)c(C(F)(F)F)c1)c1cnn(-c2cnc3c4c(cccc24)C(=O)N3)c1C(F)(F)F [Example 68]	51 nM	72 nM	–	–	–	–	–	–	–	IC50 [2]: 271 nM; AUC0-∞ [4]: 10,388 ng/mL*hr; AUC(0-t) [4]: 10,168 ng/mL*h; Cmax [4]: 2,670 ng/mL; MRT [4]: 2.6 h; T1/2 [4]: 1.2 h; Tmax [4]: 0.5 h
O=C(Nc1cnc(-n2cccn2)c(C(F)(F)F)c1)c1cnn(-c2ccc3c4c(cccc24)C(=O)N3)c1C(F)(F)F [Example 31, N-(6-(1H-pyrazol-1-yl)-5-(trifluoromethyl)pyridin-3-yl)-1-(2-carbonyl-1,2-dihydrobenzo[cd]indol-6-yl)-5-(trifluoromethyl)-1H-pyrazole-4-carboxamide]	–	103 nM	206 nM	197000 ng·h/mL	25900 ng/mL	2 h	197000 ng·h/mL	1.9 h	4.7 h	–
O=C(Nc1cc(Cl)n2ncc(Cl)c2c1)c1cnn(-c2ccc3c4c(cccc24)C(=O)N3)c1C(F)(F)F [Example 13, N-(3,7-dichloropyrazolo[1,5-a]pyridin-5-yl)-1-(2-oxo-1,2-dihydrobenzo[cd]indol-6-yl)-5-trifluoromethyl-1H-pyrazole-4-carboxamide]	107 nM	–	272 nM	62700 ng·h/mL	4380 ng/mL	4 h	67800 ng·h/mL	6.2 h	9.4 h	Papp A→B at 90 min, 10 µM [5]: 7.63 ×10⁻⁶ cm/s; Papp B→A at 90 min, 10 µM [5]: 19.1 ×10⁻⁶ cm/s; efflux ratio at 90 min, 10 µM [5]: 2.5
O=C(Nc1cnc(-n2nccn2)c(C(F)(F)F)c1)c1cnn(-c2cnc3c4c(cccc24)C(=O)N3)c1C1CC1 [Example 78, N-(6-(2H-1,2,3-triazol-2-yl)-5-(trifluoromethyl)pyridin-3-yl)-5-cyclopropyl-1-(2-oxo-1,2-dihydropyrrolo[4,3,2-ij]isoquinolin-6-yl)-1H-pyrazole-4-carboxamide]	–	67 nM	–	–	–	–	–	–	–	–

Further molecules by falling IC50 ([2]; Homo sapiens), results first:

IC50 [1]	IC50 [3]	IC50 ([2]; Homo sapiens)	AUC(0-t) [4, 6]	Cmax [4, 7]	Tmax [4, 8]	AUC(0-inf) ([4]; male, mouse, po)	half-life ([4]; male, mouse, po)	MRT ([4]; male, mouse, po, read-out: MRT)	SMILES	other results
31 nM	93 nM	152 nM	–	–	–	–	–	–	O=C(Nc1cnc(-n2nccn2)c(C(F)(F)F)c1)c1cnn(-c2ccc3c4c(cccc24)C(=O)N3)c1C1CC1 [Example 56, N-(6-(2H-1,2,3-triazol-2-yl)-5-(trifluoromethyl)pyridin-3-yl)-5-cyclopropyl-1-(2-oxo-1,2-dihydrobenzo[cd]indol-6-yl)-1H-pyrazole-4-carboxamide]	–
16 nM	57 nM	132 nM	–	–	–	–	–	–	O=C(Nc1cnc(-n2nccn2)c(Cl)c1)c1cnn(-c2ccc3c4c(cccc24)C(=O)N3)c1C1CC1 [Example 60, N-(5-chloro-6-(2H-1,2,3-triazol-2-yl)-pyridin-3-yl)-5-cyclopropyl-1-(2-oxo-1,2-dihydrobenzo[cd]indol-6-yl)-1H-pyrazole-4-carboxamide]	–
15 nM	36 nM	120 nM	64100 ng·h/mL	7180 ng/mL	2 h	64100 ng·h/mL	2.1 h	5.2 h	O=C(Nc1cnc(-n2nccn2)c(Cl)c1)c1cnn(-c2ccc3c4c(cccc24)C(=O)N3)c1C(F)(F)F [Example 5, N-(6-(2H-1,2,3-triazol-2-yl)-5-chloropyridin-3-yl)-1-(2-oxo-1,2-dihydrobenzo[cd]indol-6-yl)-5-trifluoromethyl-1H-pyrazole-4-carboxamide]	Papp A→B at 90 min, 10 µM [5]: 1 ×10⁻⁶ cm/s; Papp B→A at 90 min, 10 µM [5]: 7.03 ×10⁻⁶ cm/s; efflux ratio at 90 min, 10 µM [5]: 7.09
28 nM	73 nM	97 nM	105000 ng·h/mL	15300 ng/mL	2 h	105000 ng·h/mL	2.1 h	4.3 h	O=C(Nc1cnc(-n2nccn2)c(C(F)F)c1)c1cnn(-c2ccc3c4c(cccc24)C(=O)N3)c1C(F)(F)F [Example 49, N-(5-difluoromethyl-6-(2H-1,2,3-triazol-2-yl)-pyridin-3-yl)-1-(2-oxo-1,2-dihydrobenzo[cd]indol-6-yl)-5-trifluoromethyl-1H-pyrazole-4-carboxamide]	–
193 nM	–	87 nM	–	–	–	–	–	–	O=C(Nc1cnc(-n2nccn2)c(C(F)(F)F)c1)c1cnn(-c2ccc3c4c(cccc24)C(=O)N3)c1C(F)F [Example 66, N-(6-(2H-1,2,3-triazol-2-yl)-5-trifluoromethylpyridin-3-yl)-5-difluoromethyl-1-(2-oxo-1,2-dihydrobenzo[cd]indol-6-yl)-1H-pyrazole-4-carboxamide]	–
